For one experiment, the target named is T1, PD-L1 (Homo sapiens, UniProt Q9NZQ7).
T1 construct: expressed in transfected cells; host or cells: Huh7 cells, transfected; captured on streptavidin agarose
Put plainly: Cholesterol binding to PD-L1. The conditions noted are these: summary statement, cholesterol binding to TM4SF5 and PD-L1. As to the method:
(a) Expression vectors for a control vector, TM4SF1, TM4SF5 WT, and R113Q, C118/145A, H127A, and N138A mutants of TM4SF5 were injected into the HEK293FT cell line, which was confirmed not to express TM4SF5, and allowed to express for 48 hours. (b) Huh7KO cell lines, in which TM4SF5 was knocked out in Huh7, were stably infected with a retrovirus encoding pBabe-EV or pBabe-TM4SF5-HA. […] (d) Strep-EV, Strep-PD-L1 WT, and 3NQ (N192/200/219Q) and 4NQ (N35/192/200/219Q) N-glycosylation mutants were injected into Huh7 cells to be expressed. (e) Strep-EV and Strep-TM4SF5 expression vectors were injected into Huh7KO cells and allowed to express for 48 hours. (a-e) After obtaining cell extracts, TM4SF5-strep, TM4SF5-HA, or PD-L1-strep was pulled down with streptavidin agarose resin or anti-HA antibody from extracts containing 0.2, 0.25, or 1.0 mg of protein for each experimental condition. […] Alternatively, they were treated with 1,2-^3H-Cholesterol (50 µM) alone or together with ST-3-001 (negative control compound), ST-5-001, or ST-5-002 (2.5 µM each) for 1 hour (c-e). For the experimental samples of each condition, radioactive isotope values were repeatedly measured using a TriCarb scintillation counter (PerkinElmer, Waltham, MA).

Experiment [1] relates to SNU761 cells expressing HA-TM4SF5 and FLAG-SLAMF7. Put plainly: Immunofluorescence microscopy of SLAMF7 localization (Pearson's correlation). The format is cell-based, human. The conditions noted are these: 2.5 µM, 24 h, vs DMSO (FIG. 15g-h). On the procedure: After putting a cover glass into each well of a 12-well plate, 10 µg/ml fibronectin (35600, BD Biosciences) diluted in PBS was added thereto and left at room temperature for 1 hour for coating. After washing three times with PBS, 20,000 cells were seeded on each cover glass and cultured in a cell incubator at 37°C for 16 hours. After cultivation, the various expression vectors mentioned above were transfected using Lipofectamine 3000 (L3000015, Invitrogen) and cultured for 24 hours, and then isoxazole was treated or not treated for 24 hours. The cells were fixed with cold 99% methanol at room temperature for 15 minutes and then blocked with 1% BSA in PBS for 1 hour. Primary antibodies, anti-FLAG (NB600-344, Novus Biologicals), anti-LAMP1 (#9091, Cell Signaling Tech,), anti-ZO-1 (402200, Invitrogen), anti-HA (901515, BioLegend), and anti-SLAMF7 (sc-390840, Santa Cruz Biotech.), were diluted in 1% BSA in PBS at a ratio of 1:500 and reacted at 4°C for 16 hours. The next day, the cover glasses were washed three times with PBS, and then fluorescence-conjugated secondary antibodies (Alexa Fluor 488 [goat: A11055 and mouse: A21202] and 555 [goat: A21432 and mouse: A31570] from Invitrogen) were diluted in 1% BSA in PBS at a ratio of 1:500 and reacted at room temperature for 1 hour. After washing three times with PBS, mounting was performed using ProLong™ Gold Antifade (P36930, Invitrogen). Cells were randomly photographed using a Nikon Eclipse Ti microscope with a C2 confocal system, and then the images were analyzed using NIS-Elements software (Nikon, Melville, NY, USA), and colocalization of SLAMF7 with LAMP1 or ZO-1 was calculated using Pearson's correlation coefficients. All images were photographed under the same software settings and equally corrected with Adobe Photoshop. Each dot in the graphs represents a result measured from a single cell.
SNU449-TM4SF5 cells overexpressing TM4SF5 were seeded on cover glasses pre-coated with collagen Type I (10 µg/ml), and 15 hour later, PD-L1-HA cDNA was transfected using Lipofectamine 3000 (Thermo Fisher). […] After reacting again with secondary antibodies at room temperature for 30 minutes (TRITC fluorescence for LAMP1, TRITC or Alexa Fluor® 488 fluorescence for TM4SF5, and FITC fluorescence for PD-L1 or SLAMF7), the expression levels, localizations, and colocalizations (indicated in yellow) of the fluorescently-stained factors were observed using a confocal fluorescence microscope.
(a) SNU761 cells expressing HA-EV or HA-TM4SF5 and FLAG-SLAMF7 were stored at 4°C and then cultured at 37°C for the given periods. […] The colocalization coefficient was calculated by Pearson's correlation (b). […]

For another experiment, the target named is T2, TM4SF5 (Homo sapiens, UniProt O14894).
T2 sequence (O14894 1-197): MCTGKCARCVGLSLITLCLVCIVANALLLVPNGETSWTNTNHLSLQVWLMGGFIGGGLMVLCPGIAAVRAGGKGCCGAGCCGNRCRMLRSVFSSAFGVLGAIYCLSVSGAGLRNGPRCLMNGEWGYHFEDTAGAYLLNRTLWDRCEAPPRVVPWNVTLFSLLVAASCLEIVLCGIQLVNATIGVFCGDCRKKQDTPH
Put plainly: TM4SF5 expression-dependent cell line models (summary statement). More on the design: expressed in transfected cells; captured on streptavidin agarose. The class given is cell-based. The text has this: In addition, the isoxazole compounds are capable of reversing both (i) an increase in PD-L1 expression and stabilization through direct binding mediated by TM4SF5 and (ii) induction of PD-1 expression in T cells, which suppresses T-cell activation and cancer cell killing functions.

SMILES strings stand for the structures. Bounds are passed on as bounds.

T1 sequence (Q9NZQ7 19-290): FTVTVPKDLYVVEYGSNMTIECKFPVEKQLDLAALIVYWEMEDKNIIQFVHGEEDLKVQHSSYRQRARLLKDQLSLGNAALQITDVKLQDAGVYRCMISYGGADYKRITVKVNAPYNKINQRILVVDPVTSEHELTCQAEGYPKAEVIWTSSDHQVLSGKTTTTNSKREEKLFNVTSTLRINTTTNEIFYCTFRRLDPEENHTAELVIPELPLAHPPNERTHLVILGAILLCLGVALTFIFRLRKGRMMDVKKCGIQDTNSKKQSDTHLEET

`CC(=O)Nc1ccc(-c2cc(-c3ccc(O)cc3)no2)cc1` [ST-5-001, N-(4-(3-(4-hydroxyphenyl)isoxazole-5-yl)phenyl)acetamide]: at PD-L1, the “binding of cholesterol to PD-L1” value is reported as “inhibit”. In addition, in experiment [1], the “SLAMF7 colocalized at the lysosomal membrane” value is reported as “decreased” and the “SLAMF7 expression/localization at the plasma membrane (PM)” value is listed as “rather increased”. For the same compound, the “concentrations at which effects were exhibited” value at TM4SF5 was at most 1 µM.

With `Cc1ccc(C(=O)Nc2ccc(-c3cc(-c4ccc(O)cc4)no3)cc2)cc1` [ST-5-002, N-(4-(3-(4-hydroxyphenyl)isoxazole-5-yl)phenyl)-4-methylbenzamide], on PD-L1, the “binding of cholesterol to PD-L1” value is recorded as “inhibit”. Moreover, in experiment [1], the “SLAMF7 colocalized at the lysosomal membrane” value is “decreased” and the “SLAMF7 expression/localization at the plasma membrane (PM)” value is “rather increased”. The “concentrations at which effects were exhibited” value at TM4SF5 is recorded as at most 1 µM.
